US10919905B2, “Polymorphism for irinotecan free base” (ScinoPharm Taiwan, Ltd., priority 2019, dated 2021)

Assay: variable humidity x-ray powder diffraction (VH-XRPD), humidity effect on XRPD pattern
Type: physicochemical
Conditions: FIG. 7
Method: X-ray Powder Diffraction patterns were collected on a Bruker AXS D8 diffractometer using Cu Kα1 radiation (40 kV, 40 mA), θ-2θ goniometer, and divergence of 10 mm slits, a Ge monochromator and LynxEye detector. The representative PXRD pattern was collected under ambient condition.
Irinotecan free base (119 g) and dichloromethane (1600 mL, 13.5 vol) were added to a 3 L flask at room temperature (20-30° C.) to obtain a first suspension mixture. Water (120 mL, 1 vol) and 5% sodium bicarbonate (480 mL, 4 vol) were added to the first mixture at room temperature. The suspension was filtered, and then the phases were allowed to separate, and an organic layer was saved. Water (600 mL, 5 vol) was added, and the phases were allowed to separate, and the organic layer was saved. The organic layer was concentrated to about 430 mL (3.6 vol). Ethyl acetate (1440 mL, 12 vol) was added to the concentrated organic layer at 25-35° C. to obtain a second mixture. The second mixture was concentrated to about 1665 mL (14 vol) then cooled to 15-25° C. to obtain a slurry mixture. The slurry mixture was filtered, and a wet cake was obtained and dried under the nitrogen to afford irinotecan free base form S3 (98.04 g). The Form S3 was studied by using variable humidity x-ray powder diffraction (VH-XRPD) to investigate the humidity effect on XRPD pattern (FIG. 7). […] The changes in diffraction peaks are reversible with the humidity being changed.

Compound: CCc1c2c(nc3ccc(OC(=O)N4CCC(N5CCCCC5)CC4)cc13)-c1cc3c(c(=O)n1C2)COC(=O)[C@]3(O)CC [Form S3, [1,4′-bipiperidine]-1′-carboxylic acid, (4S)-4,11-diethyl-3,4,12,14-tetrahydro-4-hydroxy-3,14-dioxo-1H-pyrano[3′,4′:6,7]indolizino[1,2-b]quinolin-9-yl ester]
- humidity effect on XRPD pattern (change in diffraction peaks) (sample exposed at 5-40% RH): no significant change in diffraction peaks was observed
- humidity effect on XRPD pattern (change in diffraction peaks) (sample exposed at higher than 60% RH): the diffraction peaks changed
- reversibility of changes in diffraction peaks (with the humidity being changed): reversible
